Experimental data reported in patent US20250263415A1, “TERTIARY AMIDE DERIVATIVES SUBSTITUTED WITH 4-MEMBERED RING STRUCTURE” (Sumitomo Pharma Co., Ltd., priority 2024, published 2025).

Columns and labels:
recombinant p300 = recombinant p300 (Homo sapiens (Human), UniProt Q09472); test: HAT activity inhibition experiment (SensoLyte HAT(p300) Assay Kit); type: biochemical
Protocol: The HAT activity inhibitory ability of HAT inhibitors was evaluated using SensoLyte HAT(p300) Assay Kit (ANASPEC, AS-72172). Specifically, 7.5 μL of the compound of Examples […] diluted with assay buffer was added to 7.5 μL of recombinant p300 solution diluted 10 times with assay buffer, and the mixture was incubated at room temperature for 10 minutes. 7.5 μL of acetyl CoA solution diluted 10 times with assay buffer and 15 μL of histone H3 peptide diluted 10 times with assay buffer were added thereto, and the mixture was incubated at 37° C. for 30 minutes. 37.5 μL of Stop Solution was added to stop the reaction. 75 μL of p300 Developer solution diluted 50 times with assay buffer was added, and the mixture was incubated at room temperature for 30 minutes under light-shielded conditions. The fluorescence at 513 nm when irradiated with 389 nm excitation light was measured using a multiplate reader.

G-401 cells = test: Cell proliferation inhibition experiment using G-401 cells; type: cell-based
Protocol: G-401 cells (derived from malignant rhabdoid tumor) were obtained from the American Type Culture Collection (ATCC). G-401 cells were cultured in McCoy's 5A medium containing 10% fetal bovine serum and 1% penicillin/streptomycin under conditions of 37° C. and 5% CO2.
500 cells per well were seeded in a 384-well plate. One day after seeding, Examples 1 to 35 were added so that the final concentration of DMSO was 0.1%, and the cells were cultured for 3 days. After the culture was completed, the cell viability was measured using CellTiter-Glo Luminescent Cell Viability Assay (Promega, G7570).

Solubility test = type: physicochemical; conditions: pH 2.0 and pH 3.0 buffers
Protocol: The solubility was measured for Examples 7, 10, 20, 23, 24, and 30 to 34, Comparative Example 1, and Comparative Example 2. The test compound was added to 10 mmol/L glycine buffer (pH 2.0) and 10 mmol/L citrate buffer (pH 3.0), and the mixture was stored in a thermostatic chamber at 5° C. After standing overnight, the mixture was filtered through a membrane filter, and the concentration of the filtrate was measured by HPLC.
The HPLC measurement conditions are as follows.
HPLC conditions • Column: Acquity UPLC BEH C18, 1.7 μm, 50×2.1 mm • Column temperature: 40° C. • Mobile phase: A: 0.1% trifluoroacetic acid-containing water • B: acetonitrile • A/B (min): 95/5 (0)→0/100 (3.5)→0/100 (4)→95/5 (4.01)→95/5 (5) • Flow rate: 0.8 mL/min • Detection: UV visible detector, measurement wavelength 254 nm • Injection volume: 5 μL or • Column: Acquity UPLC BEH C18, 1.7 μm, 50×2.1 mm • Column temperature: 40° C. • Mobile phase: A: 0.1% trifluoroacetic acid-containing water • B: acetonitrile • A/B (min): • 80/20 (0)→40/60 (3.0)→0/100 (3.5)→0/100 (4)→80/20 (4.01)→80/20 (5) • Flow rate: 0.8 mL/min • Detection: UV visible detector, measurement wavelength 254 nm • Injection volume: 2 μL or • Column: Acquity UPLC BEH C18, 1.7 μm, 50×2.1 mm • Column temperature: 40° C. • Mobile phase: A: 0.1% trifluoroacetic acid-containing water • B: acetonitrile • A/B (min): • 80/20 (0)→40/60 (3.0)→0/100 (3.5)→0/100 (4)→100/0 (4.01)→100/0 (5) • Flow rate: 0.8 mL/min • Detection: UV visible detector, measurement wavelength 254 nm • Injection volume: 3 μL

[1] = Pharmacokinetic study in mice; type: in vivo
Protocol: The test compound was administered to 7-week-old female BALE/c (BALB/cAnN CrlCrlj) mice intravenously (dosage: 1 mg/kg) in a 50% PEG solution (0.01 mol/L HCl) or orally (dosage: 10 mg/kg) in a 0.5% methylcellulose aqueous solution, and blood was collected at the following times: • Intravenous administration: 5 min, 15 min, 30 min, 1 hr, 2 hr, 4 hr, 6 hr, and 24 hr after administration • Oral administration: 15 min, 30 min, 1 hr, 2 hr, 4 hr, 6 hr, and 24 hr after administration
The collected blood was centrifuged at 3000 rpm×10 min using a refrigerated centrifuge set at 4° C., and the obtained plasma was measured by LC-MS. A calibration curve was prepared from the value (peak ratio) obtained by dividing the peak area of the test substance by the peak area of the internal standard substance in MS and the concentration of the plasma calibration curve sample. The concentration in the sample was calculated from the peak ratio and the calibration curve of each sample.

G-401 xenograft [2] = test: Drug efficacy evaluation by oral administration using G-401 xenograft model mice; type: in vivo
Protocol: (§1) G-401 cells (ATCC) were intradermally transplanted into 4-7-week-old BALB/cAnNCrj-nu/nu mice (CAnN.Cg-Foxnl/CrlCrlj, Jackson Laboratory Japan) at 5×10^5 cells/mouse. After confirming the engraftment of G-401 cells 10-40 days after transplantation, the test compound suspended in a solvent such as 0.5% methylcellulose solution was orally administered twice a day at a dose of 1-100 mg/kg. The tumor volume was measured over time from the start of administration, and the effect of tumor volume reduction by administration of the test compound was evaluated. The tumor volume can be calculated from the following equation using the minor axis and major axis of the tumor measured with an electronic caliper (Mitutoyo).
A control administration group administered with only a solvent such as 0.5% methylcellulose solution and a test compound administration group were compared, and the antitumor effect was evaluated by calculating T/C from the following equation.

G-401 xenograft [3] = test: Drug efficacy evaluation by intravenous administration using G-401 xenograft mice model; type: in vivo; conditions: G-401 xenograft model
Protocol: as §1, with “as 10 mmol/L glycine buffer” for “as 0.5% methylcellulose”, “solution (pH 2.0)” for “solution”, “was” for “was orally”, “administered via the tail vein at least once” for “administered twice”, “a week” for “a day”, “of 0.015-20” for “of 1-100”
A control administration group administered with only a solvent such as 10 mmol/L glycine buffer solution (pH 2.0) and a test compound administration group were compared, and the antitumor effect was evaluated by calculating T/C from the following equation.

hDAT = hDAT (Homo sapiens (Human), UniProt Q01959); test: Dopamine receptor inhibitory activity evaluation (binding assay, CHO-S/hDAT membranes); conditions: off-target
hDAT, sequence (Q01959 whole entry): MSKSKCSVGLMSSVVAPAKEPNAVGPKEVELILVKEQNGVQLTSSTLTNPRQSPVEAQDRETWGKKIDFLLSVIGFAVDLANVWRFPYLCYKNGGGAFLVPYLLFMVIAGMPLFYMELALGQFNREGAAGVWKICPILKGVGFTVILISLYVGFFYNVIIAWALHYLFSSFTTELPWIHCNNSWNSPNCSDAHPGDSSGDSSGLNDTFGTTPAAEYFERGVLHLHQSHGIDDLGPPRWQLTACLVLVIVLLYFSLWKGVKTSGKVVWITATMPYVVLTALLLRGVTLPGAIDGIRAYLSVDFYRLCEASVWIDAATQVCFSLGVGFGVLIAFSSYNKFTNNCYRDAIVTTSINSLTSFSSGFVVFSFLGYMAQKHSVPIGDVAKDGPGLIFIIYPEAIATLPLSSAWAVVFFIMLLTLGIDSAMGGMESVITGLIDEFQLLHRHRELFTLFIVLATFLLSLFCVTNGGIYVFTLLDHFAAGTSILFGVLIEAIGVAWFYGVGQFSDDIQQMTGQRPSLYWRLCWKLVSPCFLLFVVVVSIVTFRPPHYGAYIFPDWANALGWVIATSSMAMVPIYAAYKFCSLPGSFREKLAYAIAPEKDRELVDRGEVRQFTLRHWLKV
Protocol: The binding evaluation assay was outsourced to Eurofins. Specifically, CHO—S/hDAT cells were homogenized in an incubation buffer consisting of 50 mmol/L Tris-HCl, pH 7.4, 100 mmol/L NaCl, 1 μmol/L Leupeptin, and 10 μmol/L PMSF. The membrane pellet obtained by centrifugation was resuspended in the incubation buffer to prepare a membrane preparation. The test compound (1-10 μmol/L DMSO solution), the membrane preparation, and 0.15 nmol/L […] were mixed and incubated at 4° C. for 180 minutes. The cell membrane-[^125I]RTI-55 complex was bound to a GF/B filter mat by vacuum filtration and washed with 50 mmol/L Tris-HCl, pH 7.4. The effect on the receptor was assessed by measuring radioactivity using a scintillation counter.

hSERT = hSERT (Homo sapiens (Human), UniProt P31645); test: Serotonin receptor inhibitory activity evaluation (binding assay, HEK293/hSERT membranes); conditions: off-target
hSERT, sequence (P31645 whole entry): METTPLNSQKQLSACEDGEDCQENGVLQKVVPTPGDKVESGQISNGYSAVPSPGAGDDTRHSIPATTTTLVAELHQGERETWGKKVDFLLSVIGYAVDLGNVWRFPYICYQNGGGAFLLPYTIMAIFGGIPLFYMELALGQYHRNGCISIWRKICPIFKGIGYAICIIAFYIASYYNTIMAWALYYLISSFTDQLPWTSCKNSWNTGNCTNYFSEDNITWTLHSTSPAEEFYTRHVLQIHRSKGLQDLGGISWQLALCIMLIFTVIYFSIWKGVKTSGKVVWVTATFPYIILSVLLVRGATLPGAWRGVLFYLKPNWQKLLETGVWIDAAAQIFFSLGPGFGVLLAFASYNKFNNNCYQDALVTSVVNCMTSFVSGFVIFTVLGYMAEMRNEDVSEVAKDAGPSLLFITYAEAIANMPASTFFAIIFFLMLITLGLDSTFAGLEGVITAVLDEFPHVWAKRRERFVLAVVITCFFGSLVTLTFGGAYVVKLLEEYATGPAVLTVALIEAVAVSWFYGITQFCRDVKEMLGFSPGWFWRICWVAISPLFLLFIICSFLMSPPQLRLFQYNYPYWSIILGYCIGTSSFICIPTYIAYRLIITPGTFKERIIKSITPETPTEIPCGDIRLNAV
Protocol: The binding evaluation assay was outsourced to Eurofins. Specifically, HEK293/hSERT cells were homogenized in a buffer consisting of 100 mmol/L NaCl, 1 μmol/L Leupeptin, 10 μmol/L PMSF, and 50 mmol/L Tris-HCl (pH7.4). The membrane pellet obtained by centrifugation was resuspended in an incubation buffer consisting of 50 mmol/L Tris-HCl (pH 7.4), 120 mmol/L NaCl, and 5 mmol/L KCl to prepare a membrane preparation. The test compound (1-10 μmol/L DMSO solution), the membrane preparation, and 0.4 nmol/L [^3H]Paroxetin were mixed and incubated at 25° C. for 60 minutes. The cell membrane-[^3H]Paroxetin complex was bound to a GF/B filter mat by vacuum filtration and washed with 50 mmol/L Tris-HCl (pH 7.4). The effect on the receptor was assessed by measuring radioactivity using a scintillation counter.

recombinant p300, sequence (Q09472 whole entry): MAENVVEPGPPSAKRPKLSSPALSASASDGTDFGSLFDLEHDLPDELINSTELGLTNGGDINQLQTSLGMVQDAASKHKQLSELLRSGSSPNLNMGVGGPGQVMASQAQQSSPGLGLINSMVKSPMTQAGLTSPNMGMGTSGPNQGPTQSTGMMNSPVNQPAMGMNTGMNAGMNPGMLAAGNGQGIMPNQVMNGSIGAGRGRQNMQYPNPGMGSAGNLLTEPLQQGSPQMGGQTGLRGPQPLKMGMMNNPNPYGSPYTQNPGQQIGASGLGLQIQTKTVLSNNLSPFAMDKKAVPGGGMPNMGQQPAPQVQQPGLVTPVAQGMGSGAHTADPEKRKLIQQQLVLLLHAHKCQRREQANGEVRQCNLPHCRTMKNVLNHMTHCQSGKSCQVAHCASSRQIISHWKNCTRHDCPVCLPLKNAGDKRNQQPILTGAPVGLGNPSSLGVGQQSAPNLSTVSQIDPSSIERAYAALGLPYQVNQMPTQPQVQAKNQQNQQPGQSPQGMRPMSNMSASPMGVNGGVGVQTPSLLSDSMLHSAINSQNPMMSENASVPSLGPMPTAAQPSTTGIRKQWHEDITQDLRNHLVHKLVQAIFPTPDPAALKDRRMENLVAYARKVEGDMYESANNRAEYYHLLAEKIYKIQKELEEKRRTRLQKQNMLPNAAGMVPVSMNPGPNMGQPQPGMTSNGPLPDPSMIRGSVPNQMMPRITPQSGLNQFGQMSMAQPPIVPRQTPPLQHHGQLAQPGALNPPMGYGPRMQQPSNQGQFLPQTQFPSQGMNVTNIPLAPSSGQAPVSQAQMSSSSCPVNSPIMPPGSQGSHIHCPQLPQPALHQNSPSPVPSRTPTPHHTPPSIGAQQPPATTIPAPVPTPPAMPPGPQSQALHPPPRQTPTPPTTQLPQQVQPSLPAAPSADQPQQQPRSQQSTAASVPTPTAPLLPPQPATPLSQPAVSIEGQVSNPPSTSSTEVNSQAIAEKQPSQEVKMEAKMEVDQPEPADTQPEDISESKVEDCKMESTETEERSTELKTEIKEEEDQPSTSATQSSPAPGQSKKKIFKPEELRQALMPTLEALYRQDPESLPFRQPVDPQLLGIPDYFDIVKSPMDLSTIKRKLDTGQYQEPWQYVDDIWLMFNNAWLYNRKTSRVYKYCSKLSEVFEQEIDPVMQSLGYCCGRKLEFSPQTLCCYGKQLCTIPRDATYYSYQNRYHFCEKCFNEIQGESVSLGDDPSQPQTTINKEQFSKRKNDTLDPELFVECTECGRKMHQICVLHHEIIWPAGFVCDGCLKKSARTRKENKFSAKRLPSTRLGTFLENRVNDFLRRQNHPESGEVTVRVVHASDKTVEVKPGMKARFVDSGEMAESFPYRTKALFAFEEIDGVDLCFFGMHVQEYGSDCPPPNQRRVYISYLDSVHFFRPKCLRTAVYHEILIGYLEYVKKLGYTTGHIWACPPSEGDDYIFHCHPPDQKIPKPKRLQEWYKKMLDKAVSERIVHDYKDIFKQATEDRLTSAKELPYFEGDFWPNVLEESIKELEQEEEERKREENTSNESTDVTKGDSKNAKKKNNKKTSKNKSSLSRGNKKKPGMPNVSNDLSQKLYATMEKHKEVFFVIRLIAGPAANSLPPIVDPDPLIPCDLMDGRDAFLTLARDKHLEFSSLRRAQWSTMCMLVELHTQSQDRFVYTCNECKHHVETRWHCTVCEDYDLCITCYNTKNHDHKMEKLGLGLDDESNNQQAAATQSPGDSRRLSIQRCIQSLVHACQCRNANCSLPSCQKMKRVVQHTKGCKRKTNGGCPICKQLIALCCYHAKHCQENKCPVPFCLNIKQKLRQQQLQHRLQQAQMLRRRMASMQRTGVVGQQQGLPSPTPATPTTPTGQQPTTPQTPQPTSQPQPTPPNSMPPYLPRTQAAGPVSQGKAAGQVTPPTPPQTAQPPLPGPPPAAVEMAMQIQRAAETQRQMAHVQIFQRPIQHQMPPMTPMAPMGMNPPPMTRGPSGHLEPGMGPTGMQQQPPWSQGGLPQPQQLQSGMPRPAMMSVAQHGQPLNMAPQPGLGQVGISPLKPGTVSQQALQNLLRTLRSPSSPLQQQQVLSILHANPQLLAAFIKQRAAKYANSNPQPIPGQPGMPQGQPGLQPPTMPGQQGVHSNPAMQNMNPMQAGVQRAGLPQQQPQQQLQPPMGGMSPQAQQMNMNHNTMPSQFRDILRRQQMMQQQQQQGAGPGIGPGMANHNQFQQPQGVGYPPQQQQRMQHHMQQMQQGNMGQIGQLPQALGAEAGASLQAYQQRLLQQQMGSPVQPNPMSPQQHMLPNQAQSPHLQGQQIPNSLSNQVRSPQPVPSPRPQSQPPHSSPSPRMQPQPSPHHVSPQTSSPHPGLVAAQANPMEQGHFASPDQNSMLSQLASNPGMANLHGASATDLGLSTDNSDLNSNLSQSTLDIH

- HAT activity inhibition (in words) (recombinant p300): strong inhibition of HAT activity
- Solubility (in words) (Solubility test): high solubility
- Pharmacokinetics (in words) [1]: excellent pharmacokinetics
- Inhibitory effect on dopamine receptors (in words) (hDAT): did not show strong inhibitory activity
- Inhibitory effect on serotonin receptors (in words) (hSERT): did not show strong inhibitory activity
Structure (SMILES): O=C1N[C@]2(C[C@@H](F)c3cc(-c4cnn(C5CN(C6COC6)C5)c4)ccc32)C(=O)N1CC(=O)N(Cc1ccc(F)cn1)C1(C(F)(F)F)COC1 [Example 7, 2-[(1′S,3′R)-3′-fluoro-5′-{1-[1-(oxetan-3-yl)azetidin-3-yl]-1H-pyrazol-4-yl}-2,5-dioxo-2′,3′-dihydrospiro[imidazolidine-4,1′-inden]-1-yl]-N-[(5-fluoropyridin-2-yl)methyl]-N-[3-(trifluoromethyl)oxetan-3-yl]acetamide]
- Cell proliferation inhibitory effect on G-401 cells (in words) (G-401 cells): strong cell proliferation inhibitory effect
- Antitumor effect, oral administration (in words) (G-401 xenograft [2]): strong antitumor effects
- Antitumor effect, intravenous administration (in words) (G-401 xenograft [3]): strong antitumor effects
